These results are taken from patent US20240000950A1, “THERAPEUTIC CURE-PRO COMPOUNDS FOR TARGETED DEGRADATION OF BET DOMAIN PROTEINS, AND METHODS OF MAKING AND USING THEM” (CORNELL UNIVERSITY, priority 2020, published 2024).

This assay deals with BRD4 (Homo sapiens, UniProt O60885). Put plainly: Summary of E3 ligase directed degradation of BRD4, estimated from Western Blot or WES (Tables 1-6). It counts as cell-based. On the set-up: endogenous in cells; host or cells: HeLa, MCF7 or HCT116. The note with it: for Degradation of BRD4, combination with VHL ligand [drawing 442]: aromatic 1,2-diol-containing VHL ligand drawn as drawing 442 (by the text apparently 8305); for Degradation of BRD4, combination with CRBN ligand [drawing 421] / Degradation of BRD4, combination with CRBN ligand [drawing 422] / Degradation of BRD4, combination with CRBN ligand [drawing 397]: Table 1; for Degradation of BRD4, combination with CRBN ligand [drawing 421]: CRBN ligand drawn as drawing 421 (by the text apparently 8047); for Degradation of BRD4, combination with CRBN ligand [drawing 422]: CRBN ligand drawn as drawing 422 (by the text apparently 8066); for Degradation of BRD4, combination with CRBN ligand [drawing 397]: aromatic 1,2-diol- or hindered cis-1,2-diol-containing CRBN ligand drawn as drawing 397 (by the text apparently 8046); for Degradation of BRD4, combination with MDM2 ligand [drawing 431]: Table 2, aromatic 1,2-diol-containing MDM2 ligand drawn as drawing 431 (by the text apparently 8314); for Degradation of BRD4, combination with CRBN ligand [drawing 457]: Table 4, aryl-boronic acid-containing CRBN ligand drawn as drawing 457 (by the text apparently 8048). The procedure: HeLa, MCF7, or HCT116 cells (2.5-3×10^6) were treated for 24 hours with the indicated compounds solubilized in DMSO. The cells were washed in ice-cold PBS and were then lysed in RIPA lysis buffer (150 mM NaCl, 5 mM EDTA, 1% NP-40, 0.5% sodium deoxycholate, 0.1% SDS, 50 mM Tris, pH 8.0) with Roche protease inhibitor complete cocktail and phosphatase inhibitors (10 mM sodium fluoride, 10 mM sodium pyrophosphate, 1 mM sodium orthovanadate and 20 mM β-glycerophosphate). The total protein concentrations were determined by Bradford Protein Assay and 10-20 μg of protein was loaded onto 4-15% Tris-Glycine gradient gels (Biorad). After standard gel electrophoresis, the separated proteins were transferred to PVDF membrane by wet transfer. The immunoblots were then blocked for 1 hour in 5% skim milk in TBST or 5% BSA in TBST, according to manufacturer's instructions, before an overnight incubation at 4° C. with indicated antibodies and membranes. Membranes were then incubated with the appropriate horseradish peroxidase-conjugated secondary antibodies (1:5,000 dilution) for 1 h at room temperature and the bands were visualized using the Clarity Max Western ECL Substrate (Biorad) and the ChemiDoc Imaging System (Biorad). Signal was detected with ECL Western Blotting Substrate (Pierce) and X-ray film processed with a Konica SRX-101 X-ray film processor or captured by Bio-Rad's Chemidoc Imaging system.
WES Simple analysis was performed on WES system (ProteinSimple-Biotechne) according to the manufacturer's instructions. Total protein concentrations of cell lysates were determined by the Pierce BCA kit (Thermo Fisher). 3 μL of 0.3 μg/uL of the protein lysate was loaded onto a 12- to 230-kDa WES assay plate (ProteinSimple) where 300 nL sample was withdrawn through a capillary, subjected to electrophoretic separation of proteins by size, and followed by the simultaneous, HRP-based detection of proteins using the Anti-Rabbit Detection Module (Proteinsimple: #DM-001). The electropherograms were checked then the automatic peak detection was manually corrected if it was required.
A black check mark indicates efficacy of 30% to 70% or higher protein degradation.

`COc1ccc2c(c1)C(c1ccc(Cl)cc1)=N[C@@H](CC(=O)NCCNC(=O)c1cccc(B(O)O)c1)c1nnc(C)n1-2` [BRD-E02]: the “Degradation of BRD4, combination with VHL ligand [drawing 442]” value (“Degradation of BRD4 … [drawing 442]” below) (Table 3) is given as “✓ (A black check mark indicates efficacy of 30% to 70% or higher protein degradation)”. Take `COc1ccc2c(c1)C(c1ccc(Cl)cc1)=N[C@@H](CC(=O)NCCCNC(=O)c1cccc(B(O)O)c1)c1nnc(C)n1-2` [BRD-E04]: the “Degradation of BRD4, combination with CRBN ligand [drawing 421]” value (“Degradation of BRD4 … [drawing 421]” for short) is recorded as “✓ (A black check mark indicates efficacy of 30% to 70% or higher protein degradation)”; the “Degradation of BRD4, combination with CRBN ligand [drawing 422]” value (from here on “Degradation of BRD4 … [drawing 422]”) is on record as “✓ (A black check mark indicates efficacy of 30% to 70% or higher protein degradation)”; the “Degradation of BRD4, combination with CRBN ligand [drawing 397]” value (from here on “Degradation of BRD4 … [drawing 397]”) is “✓ (A black check mark indicates efficacy of 30% to 70% or higher protein degradation)”. Regarding `COc1ccc2c(c1)C(c1ccc(Cl)cc1)=N[C@@H](CC(=O)NCCCCNC(=O)c1ccc(B(O)O)cc1)c1nnc(C)n1-2` [BRD-E05], the “Degradation of BRD4 … [drawing 421]” value is recorded as “✓ (A black check mark indicates efficacy of 30% to 70% or higher protein degradation)” and the “Degradation of BRD4 … [drawing 422]” value was “✓ (A black check mark indicates efficacy of 30% to 70% or higher protein degradation)”. In the case of `COc1ccc2c(c1)C(c1ccc(Cl)cc1)=N[C@@H](CC(=O)NCCCCCNC(=O)c1ccc(B(O)O)cc1)c1nnc(C)n1-2` [BRD-E07], the “Degradation of BRD4 … [drawing 422]” value is “✓ (A black check mark indicates efficacy of 30% to 70% or higher protein degradation)”. Regarding `COc1ccc2c(c1)C(c1ccc(Cl)cc1)=N[C@@H](CC(=O)NCc1ccc(B(O)O)cc1)c1nnc(C)n1-2` [BRD-E09, (4-((2-((4S)-6-(4-chlorophenyl)-8-methoxy-1-methyl-4H-benzo[f][1,2,4]triazolo[4,3-a][1,4]diazepin-4-yl)acetamido)methyl)phenyl)boronic acid], the “Degradation of BRD4 … [drawing 421]” value is “✓ (A black check mark indicates efficacy of 30% to 70% or higher protein degradation)”. The “Degradation of BRD4 … [drawing 442]” value (Table 3) is given as “✓ (A black check mark indicates efficacy of 30% to 70% or higher protein degradation)”. `COc1ccc2c(c1)C(c1ccc(Cl)cc1)=N[C@@H](CC(=O)NCc1cccc(B(O)O)c1)c1nnc(C)n1-2` [BRD-E10]: the “Degradation of BRD4 … [drawing 421]” value is “✓ (A black check mark indicates efficacy of 30% to 70% or higher protein degradation)” and the “Degradation of BRD4 … [drawing 397]” value is reported as “✓ (A black check mark indicates efficacy of 30% to 70% or higher protein degradation)”. For the same compound, the “Degradation of BRD4, combination with VHL ligand [drawing 441]” value (Table 3, aromatic 1,2-diol-containing VHL ligand drawn as drawing 441 (by the text apparently 8304)) is “✓ (A black check mark indicates efficacy of 30% to 70% or higher protein degradation)”.

As to `COc1ccc2c(c1)C(c1ccc(Cl)cc1)=N[C@@H](CC(=O)NCCc1ccc(B(O)O)cc1)c1nnc(C)n1-2` [BRD-E14, (4-(2-(2-((4S)-6-(4-chlorophenyl)-8-methoxy-1-methyl-4H-benzo[f][1,2,4]triazolo[4,3-a][1,4]diazepin-4-yl)acetamido)ethyl)phenyl)boronic acid], the “Degradation of BRD4 … [drawing 421]” value is on record as “✓ (A black check mark indicates efficacy of 30% to 70% or higher protein degradation)” and the “Degradation of BRD4, combination with MDM2 ligand [drawing 431]” value is reported as “✓ (A black check mark indicates efficacy of 30% to 70% or higher protein degradation)”. In addition, the “Degradation of BRD4 … [drawing 442]” value (Table 3) was “✓ (A black check mark indicates efficacy of 30% to 70% or higher protein degradation)”. Regarding `COc1ccc2c(c1)C(c1ccc(Cl)cc1)=N[C@@H](CC(=O)NCCNC(=O)Cc1ccc(B(O)O)cc1)c1nnc(C)n1-2` [BRD-E27, (4-(2-((2-(2-((4S)-6-(4-chlorophenyl)-8-methoxy-1-methyl-4H-benzo[f][1,2,4]triazolo[4,3-a][1,4]diazepin-4-yl)acetamido)ethyl)amino)-2-oxoethyl)phenyl)boronic acid], the “Degradation of BRD4 … [drawing 421]” value is on record as “✓ (A black check mark indicates efficacy of 30% to 70% or higher protein degradation)”.

For `COc1ccc2c(c1)C(c1ccc(Cl)cc1)=N[C@@H](CC(=O)NCCNC(=O)Cc1cccc(B(O)O)c1)c1nnc(C)n1-2` [BRD-E38], the “Degradation of BRD4 … [drawing 421]” value is reported as “✓ (A black check mark indicates efficacy of 30% to 70% or higher protein degradation)”.

Take `CCNC(=O)C[C@@H]1N=C(c2ccc(Cl)cc2)c2cc(OCCOCCNC(=O)c3ccc(B(O)O)cc3)ccc2-n2c(C)nnc21` [BRD-E39]: the “Degradation of BRD4 … [drawing 397]” value is on record as “✓ (A black check mark indicates efficacy of 30% to 70% or higher protein degradation)”. Regarding `CCNC(=O)C[C@@H]1N=C(c2ccc(Cl)cc2)c2cc(OCCOCCOCCNC(=O)c3cccc(B(O)O)c3)ccc2-n2c(C)nnc21` [BRD-E42], the “Degradation of BRD4 … [drawing 421]” value is given as “✓ (A black check mark indicates efficacy of 30% to 70% or higher protein degradation)”.

Regarding `CCNC(=O)C[C@@H]1N=C(c2ccc(Cl)cc2)c2cc(OCCOCCOCCOCCNC(=O)c3ccc(B(O)O)cc3)ccc2-n2c(C)nnc21` [BRD-E43], the “Degradation of BRD4 … [drawing 421]” value was “✓ (A black check mark indicates efficacy of 30% to 70% or higher protein degradation)” and the “Degradation of BRD4 … [drawing 422]” value is “✓ (A black check mark indicates efficacy of 30% to 70% or higher protein degradation)”. For the compound `COc1ccc2c(c1)C(c1ccc(Cl)cc1)=N[C@@H](CC(=O)NCCOCCOCCNC(=O)c1ccc(B(O)O)cc1)c1nnc(C)n1-2` [BRD-E45], the “Degradation of BRD4 … [drawing 422]” value is “✓ (A black check mark indicates efficacy of 30% to 70% or higher protein degradation)”. The “Degradation of BRD4 … [drawing 442]” value (Table 3) is given as “✓ (A black check mark indicates efficacy of 30% to 70% or higher protein degradation)”. On to `CCNC(=O)C[C@@H]1N=C(c2ccc(SCc3ccc(B(O)O)cc3)cc2)c2cc(OC)ccc2-n2c(C)nnc21` [BRD-E54], for which, for the setting “Table 3”, the “Degradation of BRD4 … [drawing 442]” value is reported as “✓ (A black check mark indicates efficacy of 30% to 70% or higher protein degradation)”. In the case of `COc1ccc2c(c1)C(c1ccc(Cl)cc1)=N[C@@H](CC(=O)Nc1ccc(B(O)O)cc1)c1nnc(C)n1-2` [BRD-E74, (4-(2-((4S)-6-(4-chlorophenyl)-8-methoxy-1-methyl-4H-benzo[f][1,2,4]triazolo[4,3-a][1,4]diazepin-4-yl)acetamido)phenyl)boronic acid], the “Degradation of BRD4 … [drawing 397]” value is recorded as “✓ (A black check mark indicates efficacy of 30% to 70% or higher protein degradation)” and the “Degradation of BRD4, combination with MDM2 ligand [drawing 431]” value was “✓ (A black check mark indicates efficacy of 30% to 70% or higher protein degradation)”. With `COc1ccc2c(c1)C(c1ccc(Cl)cc1)=N[C@@H](CC(=O)NCCNC(=O)c1ccc(O)c(O)c1)c1nnc(C)n1-2` [BRD-N01], the “Degradation of BRD4, combination with CRBN ligand [drawing 457]” value is reported as “✓ (A black check mark indicates efficacy of 30% to 70% or higher protein degradation)”.

Consider `COc1ccc2c(c1)C(c1ccc(Cl)cc1)=N[C@@H](CC(=O)NCCCCNC(=O)c1ccc(O)c(O)c1)c1nnc(C)n1-2` [BRD-N05], for which the “Degradation of BRD4, combination with CRBN ligand [drawing 457]” value is recorded as “✓ (A black check mark indicates efficacy of 30% to 70% or higher protein degradation)”. Still for that read-out and setting: to `COc1ccc2c(c1)C(c1ccc(Cl)cc1)=N[C@@H](CC(=O)NCCCCNC(=O)c1cccc(O)c1O)c1nnc(C)n1-2` [BRD-N06] belongs “✓ (A black check mark indicates efficacy of 30% to 70% or higher protein degradation)”; to `CCNC(=O)C[C@@H]1N=C(c2ccc(Cl)cc2)c2cc(OCCCCC(=O)Nc3ccc(O)c(O)c3)ccc2-n2c(C)nnc21` [BRD-N22, 5-(((4S)-6-(4-chlorophenyl)-4-(2-(ethylamino)-2-oxoethyl)-1-methyl-4H-benzo[f][1,2,4]triazolo[4,3-a][1,4]diazepin-8-yl)oxy)-N-(3,4-dihydroxyphenyl)pentanamide], “✓ (A black check mark indicates efficacy of 30% to 70% or higher protein degradation)”; to `COc1ccc2c(c1)C(c1ccc(Cl)cc1)=N[C@@H](CC(=O)NCCNC(=O)Cc1ccc(O)c(O)c1)c1nnc(C)n1-2` [BRD-N30], “✓ (A black check mark indicates efficacy of 30% to 70% or higher protein degradation)”.
